Results from publication PMC8071544, “Synthesis and Bioactivities of Marine Pyran-Isoindolone Derivatives as Potential Antithrombotic Agents” (Marine Drugs, 2021).

Assays:
pro-uPA and plasminogen = molecular target: T1, pro-uPA and plasminogen (Homo sapiens, UniProt P00747); test: Fibrinolytic activity in vitro (reciprocal activation of pro-uPA and plasminogen, urokinase activity by chromogenic substrate S-2444); format: biochemical; details: for EC50 (fibrinolytic activity): in vitro, slope of kinetic curve A405 nm, S-2444, mean of two independent experiments; for fibrinolytic activity (in words): compared with FGFC1
T1 construct: purchased Sigma Aldrich (China)
Procedure: To evaluate the antithrombotic effect, all the synthesized FGFC1 derivatives were tested for their fibrinolytic activities in vitro. Fibrinolytic activity of each compound was expressed as 50% effective concentration (EC50), and FGFC1 was used as a positive control. The reciprocal activation of pro-uPA catalyzed plasminogen, which was measured based on urokinase activity by a chromogenic substrate S-2444. EC50 was calculated with the slope of kinetic curve of enzymatic reaction based on the reciprocal activation of pro-uPA and plasminogen (Figure 1 and Figure 2). The effect of introducing different hydrophobic moieties/groups to C-2, C-2′ and C-1′′ positions of FGFC1 was investigated by replacement of the protons on C2-OH/C2′-OH moieties and C1′′-COOH position, with methyl, ethyl, propyl, and bromo-substituted benzyl halide groups to yield derivatives F1–F7 (purity > 98% by HPLC analysis), which presented different urokinase activities and reciprocal activation of Pro-uPA-catalyzed plasminogen in vitro.
The fibrinolytic activities of compounds FGFC1 and derivatives F1–F7 were evaluated by plasmin method. Tris-HCl buffer solution (100 mmol/L, NaCl, pH 7.4), plasminogen (plg), BSA, and S-2444 were used as substrates. Derivatives F1–F7 dissolved in 0.05 mol/L Tris-HCl buffer containing NaCl (100 mmol/L) at pH 7.4 and the BSA used as a substrate.The concentrations of plg, BSA and S-2444 were 1.5 μmol/L, 5 μmol/L and 4 nmol/L, respectively. They were prepared in a 96-well microplate. After the predetermined sample solutions (compounds FGFC1 and F1–F7) were added, pro-uPA (20 μmol/L) was added into the 96-well microplate. The microplate was then cultivated at 37 °C for 60 min. The continuous variation trend of absorbance was determined for evaluation of fibrinolytic activity on the slope of the plots of A405 nm within 150 min. In the blank group, an equal volume of Tris-HCl solution was used as a blank control. All sample solutions were prepared by adding a small amount of DMSO (<5%, v/v) solution to dissolve the derivatives.

HeLa cells = test: MTT cytotoxicity assay on HeLa cells; format: cell-based, human; details: 0.25, 0.5, 1.0 mg/mL, Figure 2A
Procedure: (§1) The cytotoxicity of FGFC1 and derivative F6 on HeLa cell lines was screened by MTT assay. […] The introduction of substituted benzyl halide to the C-2, C-2′ and C-1″ position of FGFC1 decreased cytotoxicity, which increased with increasing concentration (0.25, 0.5, 1.0 mg/mL). Moreover, to evaluate the possible apoptosis of HeLa cells induced by F6, Fas/APO-1 (a type of cell-surface NGF/TNF receptor in cancer cell) assay was carried out (Figure 2B). To evaluate the immunogenic (inflammation) property, interleukin (IL-1) levels of derivative F6 was also tested by the IL-1 assays (Figure 2C). […] This meant that the ability of F6 to induce apoptosis was weaker than that of FGFC1. […] According to Figure 2B and Figure 2C, the negative effect of F6 on tissue cell was weaker than that of FGFC1.
HeLa (human cervical carcinoma) cells were incubated in medium (10% fetal bovine serum, 1% penicillin, 1% streptomycin) at 37 °C with 95% air and 5% CO2. Cells were passaged every 2–3 d and select exponential growth cells were used for further experiments.
The cell growth inhibitory activity of FGFC1 and derivative F6 on HeLa cell lines were determined by the MTT (3-(4,5-dimethylthiazol-2yl)-2,5-diphenyl tetrazolium bromide) assay as we previously reported. In addition, an equal volume of DMEM medium was added to the blank group.

Fas/Apo-1 = Fas/Apo-1 ELISA assay on HeLa cells; format: cell-based, human; details: Figure 2B, compared with blank and FGFC1
Procedure: as §1
Fas/Apo-1 assay was carried out according to the manufacturer’s protocol. A blank control group was set up. It was not added with the samples (FGFC1 and derivative F6) and the enzyme standard reagent, and the other steps were the same. The standard curve group and the sample group were tested. On the 96-well plate, the standard curve group was supplemented with 50 μL of the standard. […] After the addition of stop solution to reaction wells, the absorbance was recorded at OD 450 nm on an Enzyme-Labeled (microplate reader) Instrument after 15 min.

IL-1 = IL-1 ELISA assay on HeLa cells; format: cell-based, human; details: Figure 2C, compared with blank and FGFC1
Procedure: as §1
The cell culture method on the 96-well plate is in accordance with that in the MTT assay. The Elisa kit assay based on IL-1 of HeLa cells was consistent with the Fas/Apo-1 Elisa kit assay.

T1 sequence (P00747 20-810 limits assumed): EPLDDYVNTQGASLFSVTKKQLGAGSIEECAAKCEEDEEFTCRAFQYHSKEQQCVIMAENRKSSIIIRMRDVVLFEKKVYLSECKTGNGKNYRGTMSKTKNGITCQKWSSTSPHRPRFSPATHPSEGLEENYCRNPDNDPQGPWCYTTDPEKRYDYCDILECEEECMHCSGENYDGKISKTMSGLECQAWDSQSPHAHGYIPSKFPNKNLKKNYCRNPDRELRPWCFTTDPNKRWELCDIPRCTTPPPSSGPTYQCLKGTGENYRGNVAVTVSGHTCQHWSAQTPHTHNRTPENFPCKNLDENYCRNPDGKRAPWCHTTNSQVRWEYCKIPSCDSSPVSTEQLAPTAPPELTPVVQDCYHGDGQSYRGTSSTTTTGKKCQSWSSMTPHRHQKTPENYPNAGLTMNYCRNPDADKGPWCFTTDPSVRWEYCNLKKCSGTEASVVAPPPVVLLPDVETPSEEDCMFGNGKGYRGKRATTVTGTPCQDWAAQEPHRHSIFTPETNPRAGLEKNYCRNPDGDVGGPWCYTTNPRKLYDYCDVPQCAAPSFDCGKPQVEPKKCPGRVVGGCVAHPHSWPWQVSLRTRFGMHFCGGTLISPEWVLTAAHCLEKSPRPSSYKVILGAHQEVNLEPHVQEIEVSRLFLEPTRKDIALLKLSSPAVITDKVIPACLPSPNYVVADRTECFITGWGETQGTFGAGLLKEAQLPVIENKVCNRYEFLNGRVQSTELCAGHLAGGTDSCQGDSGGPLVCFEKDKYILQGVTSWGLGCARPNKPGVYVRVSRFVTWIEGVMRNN

Question: Which results are given for `CC(C)=CCC/C(C)=C/CC[C@@]1(C)Oc2c(c(OCc3ccc(Br)cc3)cc3c2CN(CCC[C@H](C(=O)OCc2ccc(Br)cc2)N2Cc4c(cc(OCc5ccc(Br)cc5)c5c4O[C@](C)(CC/C=C(\C)CCC=C(C)C)[C@H](O)C5)C2=O)C3=O)C[C@H]1O` [F6]?
Answer: EC50 (fibrinolytic activity) (pro-uPA and plasminogen): 42.3 µM; fibrinolytic activity relative to FGFC1 (pro-uPA and plasminogen; ratio of EC50 vs FGFC1): 2.72 fold; cytotoxicity on HeLa cell lines (HeLa cells): moderate cytotoxicity; expression level of Fas (Fas/Apo-1): remarkably higher than that of the blank, but it was less than that of FGFC1; expression level of IL-1 (IL-1): obviously higher than that of blank, but it was less than that of FGFC1

Question: `COC(=O)[C@@H](CCCN1Cc2c(cc(OC)c3c2O[C@](C)(CC/C=C(\C)CCC=C(C)C)[C@H](O)C3)C1=O)N1Cc2c(cc(OC)c3c2O[C@](C)(CC/C=C(\C)CCC=C(C)C)[C@H](O)C3)C1=O` [F1] was tested. Which “EC50 (fibrinolytic activity)” value (pro-uPA and plasminogen) did it give?
Answer: 59.7 µM

Question: What does the source list for `CC(C)=CCC/C(C)=C/CC[C@@]1(C)Oc2c(c(OCc3ccccc3Br)cc3c2CN(CCC[C@H](C(=O)OCc2ccccc2Br)N2Cc4c(cc(OCc5ccccc5Br)c5c4O[C@](C)(CC/C=C(\C)CCC=C(C)C)[C@H](O)C5)C2=O)C3=O)C[C@H]1O` [F7]?
Answer: fibrinolytic activity (in words) (pro-uPA and plasminogen): retained fibrinolytic activity; EC50 (fibrinolytic activity) (pro-uPA and plasminogen): 119.6 µM

Question: For `CCOC(=O)[C@@H](CCCN1Cc2c(cc(OCC)c3c2O[C@](C)(CC/C=C(\C)CCC=C(C)C)[C@H](O)C3)C1=O)N1Cc2c(cc(OCC)c3c2O[C@](C)(CC/C=C(\C)CCC=C(C)C)[C@H](O)C3)C1=O` [F2], which “EC50 (fibrinolytic activity)” value (pro-uPA and plasminogen) is on record?
Answer: 87.1 µM

Question: For `CC(C)=CCC/C(C)=C/CC[C@@]1(C)Oc2c(c(OCc3ccc(C#N)cc3)cc3c2CN(CCC[C@H](C(=O)OCc2ccc(C#N)cc2)N2Cc4c(cc(OCc5ccc(C#N)cc5)c5c4O[C@](C)(CC/C=C(\C)CCC=C(C)C)[C@H](O)C5)C2=O)C3=O)C[C@H]1O` [F4], which “EC50 (fibrinolytic activity)” value (pro-uPA and plasminogen) is on record?
Answer: 82.8 µM

Question: How did the “EC50 (fibrinolytic activity)” value (pro-uPA and plasminogen) turn out when `CC(C)=CCC/C(C)=C/CC[C@@]1(C)Oc2c(c(O)cc3c2CN(CCC[C@H](C(=O)O)N2Cc4c(cc(O)c5c4O[C@](C)(CC/C=C(\C)CCC=C(C)C)[C@H](O)C5)C2=O)C3=O)C[C@H]1O` [FGFC1, 2,5-Bis-[8-(4,8-dimethyl-nona-3,7-dienyl)-5,7-dihydroxy-8-methyl-3-keto-1,2,7,8-teraahydro-6H-pyran[a]isoindol-2-yl]-pentanoic acid, reference compound] was run?
Answer: 115.0 µM

Question: And the “cytotoxicity on HeLa cell lines” value (HeLa cells)?
Answer: moderate cytotoxicity

Question: Which “fibrinolytic activity (in words)” value (pro-uPA and plasminogen) does the source give for `CC(C)=CCC/C(C)=C/CC[C@@]1(C)Oc2c(c(OCc3ccc(OC(F)(F)F)cc3)cc3c2CN(CCC[C@H](C(=O)OCc2ccc(OC(F)(F)F)cc2)N2Cc4c(cc(OCc5ccc(OC(F)(F)F)cc5)c5c4O[C@](C)(CC/C=C(\C)CCC=C(C)C)[C@H](O)C5)C2=O)C3=O)C[C@H]1O` [F5] here?
Answer: markedly decreased the fibrinolytic activity

Question: And the “EC50 (fibrinolytic activity)” value (pro-uPA and plasminogen)?
Answer: 133.3 µM

Question: For `CCCOC(=O)[C@@H](CCCN1Cc2c(cc(OCCC)c3c2O[C@](C)(CC/C=C(\C)CCC=C(C)C)[C@H](O)C3)C1=O)N1Cc2c(cc(OCCC)c3c2O[C@](C)(CC/C=C(\C)CCC=C(C)C)[C@H](O)C3)C1=O` [F3], which “EC50 (fibrinolytic activity)” value (pro-uPA and plasminogen) is on record?
Answer: 66.6 µM
